In patent publication US7267949B2, “Composition comprising methylphenidate and another drug” (Celltech Pharma Europe Limited, priority 1995, dated 2007):

Legend:
[1] = molecular target: CYP2C9 (P450 Isozyme 2C9) (Homo sapiens, UniProt P11712); assay: Tolbutamide hydroxylase activity in human microsome preparations; details: microsomes
CYP2B (P450 Isozyme 2B) = assay: Lauric acid 11-hydroxylase activity in human microsome preparations; details: human, human microsome preparations, probe lauric acid
[2] = molecular target: CYP2D6 (P450 Isozyme 2D6) (Homo sapiens, UniProt P10635); assay: Bufuralol hydroxylase activity in human microsome preparations; details: human
Sequence of CYP2D6 (P450 Isozyme 2D6) (P10635 whole entry): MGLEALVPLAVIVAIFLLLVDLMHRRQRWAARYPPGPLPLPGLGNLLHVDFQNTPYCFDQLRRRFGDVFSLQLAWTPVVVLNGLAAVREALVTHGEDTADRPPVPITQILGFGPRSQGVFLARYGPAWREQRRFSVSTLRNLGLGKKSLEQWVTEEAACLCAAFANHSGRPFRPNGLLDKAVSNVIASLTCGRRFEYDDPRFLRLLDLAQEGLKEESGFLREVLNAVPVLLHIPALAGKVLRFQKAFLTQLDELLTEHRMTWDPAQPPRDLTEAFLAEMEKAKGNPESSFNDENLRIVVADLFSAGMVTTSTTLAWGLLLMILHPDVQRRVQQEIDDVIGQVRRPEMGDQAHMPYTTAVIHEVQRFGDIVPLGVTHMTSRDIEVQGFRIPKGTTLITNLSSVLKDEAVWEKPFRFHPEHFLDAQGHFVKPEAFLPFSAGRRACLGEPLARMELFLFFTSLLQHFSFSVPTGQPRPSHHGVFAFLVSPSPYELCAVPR

[3] = molecular target: CYP2C19 (P450 Isozyme 2C19) (Homo sapiens, UniProt P33261); assay: Mephenytoin hydroxylase activity in human microsome preparations; details: human, human microsome preparations, probe mephenytoin
Sequence of CYP2C19 (P450 Isozyme 2C19) (P33261 whole entry): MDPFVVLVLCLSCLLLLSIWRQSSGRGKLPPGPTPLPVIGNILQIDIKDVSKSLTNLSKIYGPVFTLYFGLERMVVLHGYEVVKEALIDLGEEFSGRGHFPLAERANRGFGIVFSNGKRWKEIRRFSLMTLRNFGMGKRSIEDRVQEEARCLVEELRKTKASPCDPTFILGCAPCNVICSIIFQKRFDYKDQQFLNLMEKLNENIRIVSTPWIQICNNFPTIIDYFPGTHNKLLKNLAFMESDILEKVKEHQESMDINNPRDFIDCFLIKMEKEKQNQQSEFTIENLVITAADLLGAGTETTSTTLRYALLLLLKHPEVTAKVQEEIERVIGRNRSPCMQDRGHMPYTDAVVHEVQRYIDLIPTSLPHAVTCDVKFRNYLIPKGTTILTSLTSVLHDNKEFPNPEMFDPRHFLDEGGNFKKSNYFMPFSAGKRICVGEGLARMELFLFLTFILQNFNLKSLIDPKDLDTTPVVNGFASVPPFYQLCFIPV

rats = details: 10 mg/kg, given 10 minutes following methylphenidate, within 15 to 25 minutes; cited from earlier work
P450 Isozyme 2B = assay: Lauric acid 11-hydroxylase activity in human microsome preparations; details: test substance at 100 μM, human microsomes
mouse liver = assay: Toxicity in the mouse liver; assay type: in vivo; details: compared with racemic methylphenidate
From the text: The invention is thus of particular utility in that proportion of the population in which the relevant enzymes have reduced efficiency, or that are receiving the cross-reacting drugs, e.g SSRIs, in therapy of, say, anxiety or depression.

P450 Isozyme 2D6 = P450 Isozyme 2D6 (Homo sapiens, UniProt P10635); assay: Bufuralol hydroxylase activity in human microsome preparations; details: test substance at 100 μM, human microsomes
Sequence of P450 Isozyme 2D6 (P10635 whole entry): as the sequence (P10635 whole entry) above

P450 Isozyme 2C19 = P450 Isozyme 2C19 (Homo sapiens, UniProt P33261); assay: Mephenytoin hydroxylase activity in human microsome preparations; details: test substance at 100 μM, human microsomes
Sequence of P450 Isozyme 2C19 (P33261 whole entry): as the sequence (P33261 whole entry) above

Sequence of CYP2C9 (P450 Isozyme 2C9) (P11712 whole entry): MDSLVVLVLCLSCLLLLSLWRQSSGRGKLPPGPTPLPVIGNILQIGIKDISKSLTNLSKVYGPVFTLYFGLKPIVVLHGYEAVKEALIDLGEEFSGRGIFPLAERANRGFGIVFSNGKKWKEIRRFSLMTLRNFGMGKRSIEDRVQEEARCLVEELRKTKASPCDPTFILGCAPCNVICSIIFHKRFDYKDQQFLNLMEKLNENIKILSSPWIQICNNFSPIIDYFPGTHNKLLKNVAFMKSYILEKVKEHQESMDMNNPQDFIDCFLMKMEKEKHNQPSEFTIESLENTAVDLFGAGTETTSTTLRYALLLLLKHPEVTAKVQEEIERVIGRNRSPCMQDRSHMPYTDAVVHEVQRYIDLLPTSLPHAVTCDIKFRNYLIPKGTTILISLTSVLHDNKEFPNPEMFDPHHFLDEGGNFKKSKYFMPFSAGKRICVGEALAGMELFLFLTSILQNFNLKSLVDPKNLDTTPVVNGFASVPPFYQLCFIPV

COC(=O)C(c1ccccc1)C1CCCCN1 (racemic) [Racemic Methylphenidate, methylphenidate]
inhibition at 100 µM [1]: 19% | inhibition at 100 µM (CYP2B (P450 Isozyme 2B)): < 15% | inhibition at 100 µM ([2]; microsomes): 65% | inhibition at 100 µM [3]: 44%

NCC(CC(=O)O)c1ccc(Cl)cc1 (stereo not shown) [Baclofen]
block of methylphenidate-enhanced activity and stereotypics (rats): uniform block

C=C[C@H]1C[N@@]2CC[C@H]1C[C@@H]2[C@@H](O)c1ccnc2ccc(OC)cc12 [Quinidine]
inhibition at 10 µM ([2]; human microsome preparations, probe bufuralol): > 90%

COC(=O)[C@H](c1ccccc1)[C@H]1CCCCN1 [dtmp, d-threo-methylphenidate]
% Inhibition of Enzyme Activity (Lauric acid 11-hydroxylase, 2B) (P450 Isozyme 2B): <20% | toxicity in the mouse liver (mouse liver): less toxicity in the mouse liver than racemic methylphenidate | % Inhibition of Enzyme Activity (Bufuralol hydroxylase, 2D6) (P450 Isozyme 2D6): 64% | % Inhibition of Enzyme Activity (Mephenytoin hydroxylase, 2C19) (P450 Isozyme 2C19): 31%

COC(=O)[C@@H](c1ccccc1)[C@@H]1CCCCN1 [ltmp]
% Inhibition of Enzyme Activity (Lauric acid 11-hydroxylase, 2B) (P450 Isozyme 2B): <20% | % Inhibition of Enzyme Activity (Bufuralol hydroxylase, 2D6) (P450 Isozyme 2D6): 41% | % Inhibition of Enzyme Activity (Mephenytoin hydroxylase, 2C19) (P450 Isozyme 2C19): 33%
